Values of other authors in patent US5929038A, “Pharmaceutical preparations which inhibit hepatitis B virus (HBV) replication” (Choongwae Pharmaceutical Co., Ltd., priority 1992, dated 1999).

Tested on: hepatitis B (HBV infection)
Conditions: cited from earlier work

For `Nc1ncnc2c1ncn2[C@@H]1O[C@H](COP(=O)(O)O)[C@@H](O)[C@@H]1O` [ara-AMP, reference compound], the “suppression of HBV infection” value (clinical use) is given as “transiently suppress HBV infection” and the toxicities (in vivo) is given as “often serious toxicities”.
